Results published in patent US10842838B2, “Method for the use of botanical extracts in the treatment of viral infections” (priority 2012, dated 2020).

System: VACV
Assay type: cell-based, vaccinia virus
Details: 100 pfu VACV, 48 HPI

SMILES: C=C(C)[C@@H]1CC[C@]2(C)CC[C@]3(C)[C@H](CC[C@@H]4[C@@]5(C)CC[C@H](O)C(C)(C)[C@@H]5CC[C@]43C)[C@@H]12 [lupeol]
- antiviral activity, VACV plaques: did not show suitable antiviral activity
